{"source": "patent US20160175401A1", "about": "“COMPOITIONS AND METHODS FOR MODULATING THERMOGENESIS USING PTH-RELATED AND EGF-RELATED COMPOUNDS” (DANA-FARBER CANCER INSTITUTE INC., priority 2013, published 2016)", "key": {"primary brown adipocytes": {"test_system": "primary brown adipocytes", "assay": "Thermogenic gene expression (qRT-PCR) in primary brown adipocytes", "assay_type": "cell-based, mouse", "experimental": "RNA was extracted from cultured cells or frozen tissue samples using TRIzol (Invitrogen), purified with Qiagen RNAeasy minicolums and reverse transcribed using High Capacity cDNA Reverse Transcription kit (Applied Biosystems). Resulting cDNA was analyzed by RT-qPCR. Briefly, 25 ng of cDNA and […] of each primer were mixed with SYBR® GreenER™ PCR Master Mix (Invitrogen). Reactions were performed in 384-well format using an ABI PRISM® 7900HT instrument (Applied Biosystems). Relative mRNA levels were calculated using the comparative CT method normalized to cyclophilin."}, "UCP1": {"test_system": "UCP1", "assay": "UCP1 protein levels by western blotting in primary adipocytes", "assay_type": "cell-based, mouse", "experimental": "Cells were homogenized in a lysis buffer containing 50 mM Tris (pH 7.4), 500 mM NaCl, 1% NP40, 20% glycerol, 5 mM EDTA and 1 mM PMSF, supplemented with protease and phosphatase inhibitor cocktails (Roche). The homogenates were centrifuges at 13,000 rpm for 10 min and the supernatants were used as whole cell lysates. Protein concentration was determined by Bio-Rad Bradford assay and 50 μg of proteins were used in each SDS-PAGE run. PVDF membrane was blotted with UCP1 antibody (Abeam) in TBS containing 0.05% Tween and 5% BSA. For secondary antibody incubation, TBS-T containing 5% milk was used. ECL western blotting substrates from Pierce were used for visualization of the results.\n(§1) Cells were homogenized in a lysis buffer containing 50 mMTris (pH 7.4), 500 mM NaCl, 1% NP40, 20% glycerol, 5 mM EDTA and 1 mM phenylmethylsulphonyl fluoride (PMSF) supplemented with protease and phosphatase inhibitor cocktails (Roche). The homogenates were centrifuged at 13,000 r.p.m. for 10 min, and the supernatants were used as whole-cell lysates. Protein concentration was determined by Bio-Rad protein assay, and […] protein lysate was separated in each SDS-PAGE lane. The separated proteins were transferred to a polyvinylidene difluoride (PVDF)membrane, which was blotted with antibodies in TBS containing 0.05% Tween (TBS-T) and 5% BSA. For secondary antibody incubation. TBS-T containing 5% milk was used. Enhanced chemiluminescence (ECL) western blotting substrates (Pierce) were used for visualization of the results."}, "[1]": {"test_system": "PKA substrates CREB and HSL", "assay": "PKA signalling: protein phosphorylation by western blotting in primary adipocytes", "assay_type": "cell-based, mouse", "settings": "100 nM NE, 100 ng ml^−1 PTHrP or PTH, 30 min, primary white and brown adipocytes (FIG. 23D-23E)", "experimental": "UCP1 protein levels were measured by western blotting in white (FIG. 23A) and brown (FIG. 23B) adipocytes. […] Real-time triplicate readings (upper panel) and their averages (lower panel) are shown (n=4). […] The values are mean±s.e.m. Statistical analysis was conducted using the two-tailed t-test. *, P<0.05; **, P<0.005; ***, P<0.0005, compared with the control group.\nas §1"}, "PTH1R": {"target": "T1, PTH1R (Homo sapiens, UniProt Q03431)", "T1 sequence (Q03431 27-593)": "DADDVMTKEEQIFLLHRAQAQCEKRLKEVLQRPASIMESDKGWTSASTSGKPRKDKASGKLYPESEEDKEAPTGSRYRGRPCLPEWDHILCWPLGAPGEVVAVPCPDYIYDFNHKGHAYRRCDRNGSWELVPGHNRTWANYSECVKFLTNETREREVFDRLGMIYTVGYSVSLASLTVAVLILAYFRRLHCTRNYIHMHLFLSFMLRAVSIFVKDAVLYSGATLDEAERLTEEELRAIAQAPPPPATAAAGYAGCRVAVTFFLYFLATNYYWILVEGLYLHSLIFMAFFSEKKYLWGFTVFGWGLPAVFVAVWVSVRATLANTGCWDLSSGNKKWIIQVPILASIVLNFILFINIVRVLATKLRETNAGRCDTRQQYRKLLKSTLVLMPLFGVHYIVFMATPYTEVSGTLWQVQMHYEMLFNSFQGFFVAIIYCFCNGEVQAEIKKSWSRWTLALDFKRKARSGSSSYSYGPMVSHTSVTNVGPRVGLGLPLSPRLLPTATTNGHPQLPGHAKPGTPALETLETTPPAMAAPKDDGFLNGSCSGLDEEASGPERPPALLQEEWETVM", "settings": "Dean et al., Hoare et al.; cited from earlier work"}}}
{"substance": "PTH (1-34): Synthetic peptide rat PTH(1-34) (Ala32-Phe65; Catalog No. H-5460), purchased from Bachem", "values": [{"measurement": "thermogenic gene expression", "setting": "primary brown adipocytes; 100 ng ml^−1 peptide, 2 h, primary brown adipocytes (FIG. 20D)", "result": "stimulated thermogenic gene expression"}, {"measurement": "thermogenic effects (thermogenic gene expression)", "setting": "primary brown adipocytes; 1 μg/ml, primary brown adipocytes (FIG. 9A)", "result": "thermogenic effects"}, {"measurement": "UCP1 protein levels", "setting": "UCP1; 100 nM NE, 100 ng ml^−1 PTHrP or PTH, 24 h, primary white and brown adipocytes (FIG. 23A-23B)", "result": "comparably increased UCP1 protein levels"}, {"measurement": "UCP1 protein levels", "setting": "UCP1; 24 hour treatment, norepinephrine 100 nM, peptides 100 ng/mL, western blotting (FIG. 8D)", "result": "significantly increased"}, {"measurement": "phosphorylation of the PKA substrates CREB and HSL", "setting": "[1]", "result": "stimulated the phosphorylation"}, {"measurement": "binding in the absence of G protein coupling (RO conformational state)", "setting": "PTH1R", "result": "only slightly decreased"}]}
